Values quoted from earlier work in US20220082565A1, “THE FGF19-CHOLESTYRAMINE (F-CME) TEST AS A TWO-STAGE METHOD FOR ROUTINE CANCER SCREENING” (UNIVERSITY OF CENTRAL FLORIDA RESEARCH FOUNDATION, INC., priority 2020, published 2022).

System: FGF19 transcripts
Conditions: physiological concentrations of bile acids, explants of ileal mucosa

SMILES	stimulation of human FGF19 transcripts
C[C@H](CCC(=O)O)[C@H]1CC[C@H]2[C@@H]3[C@H](O)C[C@@H]4C[C@H](O)CC[C@]4(C)[C@H]3CC[C@]12C [chenodeoxycholic acid]	approximately 300 fold
CC(CCC(=O)NCC(=O)O)C1CCC2C3C(O)CC4CC(O)CCC4(C)C3CCC12C (centres unmarked) [glycochenodeoxycholic acid]	approximately 300 fold
